Data taken from patent US10701936B2, “Herbicidal composition and method for controlling weeds” (Sumitomo Chemical Company, Limited, priority 2016, dated 2020).

How the values were obtained:
[1] = system: Echinochloa crus-galli; assay: Herbicidal effect, foliar spray pot test in greenhouse (Example 102); assay type: in vivo; settings: sprayed at 2-3 leaf stage, a week after, scale 0-100
Procedure: (§1) A plastic pot was filled with a commercially-available culture soil, and thereto inubie (common barnyardgrass; Echinochloa crus-galli) or akinoenokorogusa (giant foxtail; Setaria faberi) was seeded, and covered with the soil to about 0.5 cm, followed by growing the weeds in a greenhouse. When the weeds grew to two to three leaf stage, a spray liquid of the compound X, a spray liquid of 2,4-D choline salt, or a spray liquid of the present composition was uniformly sprayed to the whole plants so that the application rate might be a predetermined value. The spray liquid of the present composition was prepared by mixing the spray liquid of the compound X with the spray liquid of 2,4-D choline salt. The spray liquid of the compound X was prepared by mixing a predetermined amount of the formulation X with deionized water. The spray liquid of 2,4-D choline salt was prepared by dissolving 2,4-D choline salt with a 2 wt % solution of TWEEN® 20 (polyoxyethylenesorbitan fatty acid ester, manufactured by MP Biomedicals) in dimethylformamide, followed by mixing with deionized water. After applying the spray liquid, the plants were placed in a greenhouse for a week. A herbicidal effect was evaluated by classifying the effect into 101 stages from 0 (no effect) to 100 (completely dead).
(§2) The expected value of the herbicidal effect in the case of mixed use was calculated from the result of the herbicidal effect in the case of single use of each of the compounds (the value of A or B) according to the formula of Colby ((expected value)=100−(100−A)×(100−B)/100).

[2] = system: Setaria faberi; assay: as above; assay type: in vivo; settings: sprayed at 2-3 leaf stage, a week after, scale 0-100
Procedure: as §1, §2

[3] = 2,4-D choline salt 50 g/ha alone
[4] = 2,4-D choline salt 500 g/ha alone

| Compound | Herbicidal effect on Echinochloa crus-galli (observed value) [1, 3] | Herbicidal effect on Echinochloa crus-galli (observed value) [1, 4] | Herbicidal effect on Setaria faberi (observed value) [2, 3] | Herbicidal effect on Setaria faberi (observed value) [2, 4] | Herbicidal effect on Echinochloa crus-galli (observed value) ([1]; Compound X 5 g/ha alone) | Herbicidal effect on Echinochloa crus-galli (observed value) ([1]; Compound X 10 g/ha alone) | Herbicidal effect on Setaria faberi (observed value) ([2]; Compound X 5 g/ha alone) | Herbicidal effect on Setaria faberi (observed value) ([2]; Compound X 10 g/ha alone) |
| --- | --- | --- | --- | --- | --- | --- | --- | --- |
| C[N+](C)(C)CCO.O=C([O-])COc1ccc(Cl)cc1Cl [2,4-D choline salt] | 0 | 10 | 0 | 10 |  |  |  |  |
| CCOC(=O)COc1ncccc1Oc1cc(-n2c(=O)cc(C(F)(F)F)n(C)c2=O)c(F)cc1Cl [Compound X, ethyl [3-[2-chloro-4-fluoro-5-(1-methyl-6-trifluoromethyl-2,4-dioxo-1,2,3,4-tetrahydropyrimidin-3-yl)phenoxy]-2-pyridyloxy]acetate] |  |  |  |  | 20 | 35 | 30 | 45 |
